Source: patent US20060069132A1, “Azolecarboxamide herbicides” (priority 2004, published 2006)

Columns and labels:
Assay in all cases: Test C pre-/postemergence herbicide test
large crabgrass = type: in vivo, Digitaria sanguinalis; conditions: preemergence
Outline: (§1)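 Pre/post spray; non-phytotoxic solvent + surfactant. Post-timing 1–4 leaves, 2–18 cm. Read-out: visual % control vs untreated, day 12–14, greenhouse.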

[1] = system: common (oilseed) sunflower; type: in vivo, Helianthus annuus; conditions: preemergence; for Plant response rating (0 = no effect, 100 = complete control), Sunflower: 125 g ai/ha
Outline: as §1

bermudagrass = type: in vivo, Cynodon dactylon; conditions: for Plant response rating, Bermudagrass / Plant response rating (0 = no effect, 100 = complete control), Bermudagrass: preemergence
Outline: as §1

kochia = type: in vivo, Kochia scoparia; conditions: preemergence
Outline: as §1

cocklebur = type: in vivo, Xanthium strumarium; conditions: for Plant response rating, Cocklebur / Plant response rating (0 = no effect, 100 = complete control), Cocklebur: preemergence
Outline: as §1

giant foxtail = type: in vivo, Setaria faberi; conditions: preemergence
Outline: as §1

goosegrass = type: in vivo, Eleusine indica; conditions: preemergence
Outline: as §1

corn = type: in vivo, Zea mays; conditions: preemergence
Outline: as §1

Surinam grass = type: in vivo, Urochloa decumbens; conditions: preemergence; for Plant response rating (0 = no effect, 100 = complete control), Surinam Grass: 125 g ai/ha
Outline: as §1

[2] = 500 g ai/ha, scale 0 to 100 (0 no effect, 100 complete control), visual, 12 to 14 days
[3] = 62 g ai/ha, scale 0 to 100, 0 no effect, 100 complete control
[4] = 125 g ai/ha, scale 0 (no effect) to 100 (complete control), visual, 12 to 14 days
[5] = Preemergence, 500 g ai/ha, scale 0 to 100, 0 no effect, 100 complete control

CCNC(=O)c1cccc(NC(=O)c2nn(C(C)(C)CC)nc2CC)c1 [Compound 376]
Plant response rating, Crabgrass, Large (large crabgrass; 62 g ai/ha, scale 0 to 100): 80
Plant response rating (0 = no effect, 100 = complete control), Crabgrass, Large (large crabgrass; 125 g ai/ha): 100
Plant response rating, Crabgrass, Large (large crabgrass; 250 g ai/ha, scale 0-100): 100
Plant response rating, Crabgrass, Large (large crabgrass; [2]): 100
Plant response rating, Sunflower ([1]; 62 g ai/ha, scale 0 to 100): 0
Plant response rating (0 = no effect, 100 = complete control), Sunflower [1]: 0
Plant response rating, Sunflower ([1]; 250 g ai/ha, scale 0-100): 0
Plant response rating, Sunflower [1, 2]: 0
Plant response rating, Bermudagrass (bermudagrass; [3]): 80
Plant response rating (0 = no effect, 100 = complete control), Bermudagrass (bermudagrass; 125 g ai/ha): 90
Plant response rating, Bermudagrass (bermudagrass; 250 g ai/ha, scale 0-100): 100
Plant response rating, Bermudagrass (bermudagrass; [2]): 100
Plant response rating, Kochia (kochia; 62 g ai/ha, scale 0 to 100): 95
Plant response rating (0 = no effect, 100 = complete control), Kochia (kochia; 125 g ai/ha): 100
Plant response rating, Kochia (kochia; 250 g ai/ha, scale 0-100): 100
Plant response rating, Kochia (kochia; [2]): 100
Plant response rating, Cocklebur (cocklebur; 62 g ai/ha, scale 0 to 100): 0
Plant response rating (0 = no effect, 100 = complete control), Cocklebur (cocklebur; 125 g ai/ha): 0
Plant response rating, Cocklebur (cocklebur; 250 g ai/ha, scale 0-100): 0
Plant response rating, Cocklebur (cocklebur; [2]): 5
Plant response rating, Foxtail, Giant (giant foxtail; 62 g ai/ha, scale 0 to 100): 10
Plant response rating (0 = no effect, 100 = complete control), Foxtail, Giant (giant foxtail; 125 g ai/ha): 85
Plant response rating, Foxtail, Giant (giant foxtail; 250 g ai/ha, scale 0-100): 95
Plant response rating, Foxtail, Giant (giant foxtail; [2]): 100
Plant response rating, Goosegrass (goosegrass; 62 g ai/ha, scale 0 to 100): 80
Plant response rating (0 = no effect, 100 = complete control), Goosegrass (goosegrass; 125 g ai/ha): 100
Plant response rating, Goosegrass (goosegrass; 250 g ai/ha, scale 0-100): 100
Plant response rating, Goosegrass (goosegrass; [2]): 100
Plant response rating, Corn (corn; 62 g ai/ha, scale 0 to 100): 20
Plant response rating (0 = no effect, 100 = complete control), Corn (corn; 125 g ai/ha): 40
Plant response rating, Corn (corn; 250 g ai/ha, scale 0-100): 45
Plant response rating, Corn (corn; [2]): 50
Plant response rating, Surinam Grass (Surinam grass; 62 g ai/ha, scale 0 to 100): 40
Plant response rating (0 = no effect, 100 = complete control), Surinam Grass (Surinam grass): 60
Plant response rating, Surinam Grass (Surinam grass; 250 g ai/ha, scale 0-100): 90
Plant response rating, Surinam Grass (Surinam grass; [2]): 100

CCc1nn(C(C)(C)CC)nc1C(=O)Nc1cccc(C(=O)N(C)C)c1 [Compound 372]
Plant response rating, Crabgrass, Large (large crabgrass; 62 g ai/ha, scale 0 to 100): 70
Plant response rating (0 = no effect, 100 = complete control), Crabgrass, Large (large crabgrass; 125 g ai/ha): 85
Plant response rating, Crabgrass, Large (large crabgrass; 250 g ai/ha, scale 0-100): 95
Plant response rating, Crabgrass, Large (large crabgrass; [2]): 95
Plant response rating, Sunflower ([1]; 62 g ai/ha, scale 0 to 100): 0
Plant response rating (0 = no effect, 100 = complete control), Sunflower [1]: 0
Plant response rating, Sunflower ([1]; 250 g ai/ha, scale 0-100): 0
Plant response rating, Sunflower [1, 2]: 60
Plant response rating, Bermudagrass (bermudagrass; [3]): 75
Plant response rating (0 = no effect, 100 = complete control), Bermudagrass (bermudagrass; 125 g ai/ha): 98
Plant response rating, Bermudagrass (bermudagrass; 250 g ai/ha, scale 0-100): 98
Plant response rating, Bermudagrass (bermudagrass; [2]): 100
Plant response rating, Kochia (kochia; 62 g ai/ha, scale 0 to 100): 100
Plant response rating (0 = no effect, 100 = complete control), Kochia (kochia; 125 g ai/ha): 100
Plant response rating, Kochia (kochia; 250 g ai/ha, scale 0-100): 100
Plant response rating, Kochia (kochia; [2]): 100
Plant response rating, Cocklebur (cocklebur; 62 g ai/ha, scale 0 to 100): 0
Plant response rating (0 = no effect, 100 = complete control), Cocklebur (cocklebur; 125 g ai/ha): 10
Plant response rating, Cocklebur (cocklebur; 250 g ai/ha, scale 0-100): 60
Plant response rating, Cocklebur (cocklebur; [2]): 90
Plant response rating, Foxtail, Giant (giant foxtail; 62 g ai/ha, scale 0 to 100): 70
Plant response rating (0 = no effect, 100 = complete control), Foxtail, Giant (giant foxtail; 125 g ai/ha): 85
Plant response rating, Foxtail, Giant (giant foxtail; 250 g ai/ha, scale 0-100): 90
Plant response rating, Foxtail, Giant (giant foxtail; [2]): 90
Plant response rating, Goosegrass (goosegrass; 62 g ai/ha, scale 0 to 100): 70
Plant response rating (0 = no effect, 100 = complete control), Goosegrass (goosegrass; 125 g ai/ha): 80
Plant response rating, Goosegrass (goosegrass; 250 g ai/ha, scale 0-100): 90
Plant response rating, Goosegrass (goosegrass; [2]): 90
Plant response rating, Corn (corn; 62 g ai/ha, scale 0 to 100): 60
Plant response rating (0 = no effect, 100 = complete control), Corn (corn; 125 g ai/ha): 60
Plant response rating, Corn (corn; 250 g ai/ha, scale 0-100): 65
Plant response rating, Corn (corn; [2]): 65
Plant response rating, Surinam Grass (Surinam grass; 62 g ai/ha, scale 0 to 100): 50
Plant response rating (0 = no effect, 100 = complete control), Surinam Grass (Surinam grass): 85
Plant response rating, Surinam Grass (Surinam grass; 250 g ai/ha, scale 0-100): 85
Plant response rating, Surinam Grass (Surinam grass; [2]): 100

CCn1nc(C2(C)CC2)cc1C(=O)Nc1cccc(C(=O)N2CC=CC2)c1 [Compound 304]
Plant response rating, Crabgrass, Large (large crabgrass; 62 g ai/ha, scale 0 to 100): 35
Plant response rating, Crabgrass, Large (large crabgrass; [4]): 100
Plant response rating, Crabgrass, Large (large crabgrass; 250 g ai/ha, scale 0-100): 100
Plant response rating, Crabgrass, Large (large crabgrass; [2]): 100
Plant response rating, Sunflower ([1]; 62 g ai/ha, scale 0 to 100): 0
Plant response rating, Sunflower ([1]; 250 g ai/ha, scale 0-100): 0
Plant response rating, Sunflower [1, 2]: 5
Plant response rating, Bermudagrass (bermudagrass; [3]): 5
Plant response rating, Bermudagrass (bermudagrass; [4]): 70
Plant response rating, Bermudagrass (bermudagrass; 250 g ai/ha, scale 0-100): 100
Bermudagrass plant response rating (bermudagrass; [5]): 100
Plant response rating, Kochia (kochia; [4]): 80
Plant response rating, Kochia (kochia; 250 g ai/ha, scale 0-100): 85
Plant response rating, Kochia (kochia; [2]): 100
Plant response rating, Cocklebur (cocklebur; 62 g ai/ha, scale 0 to 100): 0
Plant response rating, Cocklebur (cocklebur; [4]): 0
Plant response rating, Cocklebur (cocklebur; 250 g ai/ha, scale 0-100): 0
Cocklebur plant response rating (cocklebur; [5]): 0
Plant response rating, Foxtail, Giant (giant foxtail; 62 g ai/ha, scale 0 to 100): 5
Plant response rating, Foxtail, Giant (giant foxtail; [4]): 50
Plant response rating, Foxtail, Giant (giant foxtail; 250 g ai/ha, scale 0-100): 60
Plant response rating, Foxtail, Giant (giant foxtail; [2]): 90
Plant response rating, Goosegrass (goosegrass; 62 g ai/ha, scale 0 to 100): 45
Plant response rating, Goosegrass (goosegrass; [4]): 85
Plant response rating, Goosegrass (goosegrass; 250 g ai/ha, scale 0-100): 90
Plant response rating, Goosegrass (goosegrass; [2]): 100
Plant response rating, Corn (corn; 62 g ai/ha, scale 0 to 100): 0
Plant response rating, Corn (corn; [4]): 0
Plant response rating, Corn (corn; 250 g ai/ha, scale 0-100): 15
Plant response rating, Corn (corn; [2]): 30
Plant response rating, Surinam Grass (Surinam grass; 62 g ai/ha, scale 0 to 100): 0
Plant response rating, Surinam Grass (Surinam grass; 250 g ai/ha, scale 0-100): 40
Plant response rating, Surinam Grass (Surinam grass; [2]): 85

CCC1=NN(C(C)(C)C)CC1C(=O)Nc1cc(C(=O)N2CCCC2)ccc1F (racemic) [Compound 341]
Plant response rating, Crabgrass, Large (large crabgrass; 62 g ai/ha, scale 0 to 100): 50
Plant response rating (0 = no effect, 100 = complete control), Crabgrass, Large (large crabgrass; 125 g ai/ha): 80
Plant response rating, Crabgrass, Large (large crabgrass; 250 g ai/ha, scale 0-100): 90
Plant response rating, Crabgrass, Large (large crabgrass; [2]): 100
Plant response rating, Sunflower ([1]; 62 g ai/ha, scale 0 to 100): 0
Plant response rating (0 = no effect, 100 = complete control), Sunflower [1]: 0
Plant response rating, Sunflower ([1]; 250 g ai/ha, scale 0-100): 50
Plant response rating, Sunflower [1, 2]: 100
Plant response rating, Bermudagrass (bermudagrass; [3]): 80
Plant response rating (0 = no effect, 100 = complete control), Bermudagrass (bermudagrass; 125 g ai/ha): 80
Plant response rating, Bermudagrass (bermudagrass; 250 g ai/ha, scale 0-100): 100
Plant response rating, Bermudagrass (bermudagrass; [2]): 100
Plant response rating, Kochia (kochia; 62 g ai/ha, scale 0 to 100): 80
Plant response rating (0 = no effect, 100 = complete control), Kochia (kochia; 125 g ai/ha): 100
Plant response rating, Kochia (kochia; 250 g ai/ha, scale 0-100): 100
Plant response rating, Kochia (kochia; [2]): 100
Plant response rating, Cocklebur (cocklebur; 62 g ai/ha, scale 0 to 100): 0
Plant response rating (0 = no effect, 100 = complete control), Cocklebur (cocklebur; 125 g ai/ha): 10
Plant response rating, Cocklebur (cocklebur; 250 g ai/ha, scale 0-100): 50
Plant response rating, Cocklebur (cocklebur; [2]): 100
Plant response rating, Foxtail, Giant (giant foxtail; 62 g ai/ha, scale 0 to 100): 0
Plant response rating (0 = no effect, 100 = complete control), Foxtail, Giant (giant foxtail; 125 g ai/ha): 50
Plant response rating, Foxtail, Giant (giant foxtail; 250 g ai/ha, scale 0-100): 55
Plant response rating, Foxtail, Giant (giant foxtail; [2]): 80
Plant response rating, Goosegrass (goosegrass; 62 g ai/ha, scale 0 to 100): 70
Plant response rating (0 = no effect, 100 = complete control), Goosegrass (goosegrass; 125 g ai/ha): 85
Plant response rating, Goosegrass (goosegrass; 250 g ai/ha, scale 0-100): 85
Plant response rating, Goosegrass (goosegrass; [2]): 90
Plant response rating, Corn (corn; 62 g ai/ha, scale 0 to 100): 10
Plant response rating (0 = no effect, 100 = complete control), Corn (corn; 125 g ai/ha): 60
Plant response rating, Corn (corn; 250 g ai/ha, scale 0-100): 85
Plant response rating, Corn (corn; [2]): 90
Plant response rating, Surinam Grass (Surinam grass; 62 g ai/ha, scale 0 to 100): 60
Plant response rating (0 = no effect, 100 = complete control), Surinam Grass (Surinam grass): 95
Plant response rating, Surinam Grass (Surinam grass; 250 g ai/ha, scale 0-100): 100
Plant response rating, Surinam Grass (Surinam grass; [2]): 100
